Measured values reported in ChEMBL document CHEMBL1154343, “Synthesis and biological evaluation of pyrrolopyridazine derivatives as novel HER-2 tyrosine kinase inhibitors” (Bioorg Med Chem Lett, 2009).

Key:
[1] = target: T1, Epidermal growth factor receptor (Homo sapiens, UniProt P00533); experiment: Inhibition of EGFR by HTRF assay
[2] = target: T2, Receptor tyrosine-protein kinase erbB-2 (Homo sapiens, UniProt P04626); experiment: Inhibition of HER2 in human SKBR3 cells by HTRF assay
[3] = target: T1, Epidermal growth factor receptor; experiment: Inhibition of EGFR in human A431 cells by HTRF assay
[4] = target: T2, Receptor tyrosine-protein kinase erbB-2; experiment: Inhibition of HER2 by HTRF assay

T1 sequence (P00533 whole entry): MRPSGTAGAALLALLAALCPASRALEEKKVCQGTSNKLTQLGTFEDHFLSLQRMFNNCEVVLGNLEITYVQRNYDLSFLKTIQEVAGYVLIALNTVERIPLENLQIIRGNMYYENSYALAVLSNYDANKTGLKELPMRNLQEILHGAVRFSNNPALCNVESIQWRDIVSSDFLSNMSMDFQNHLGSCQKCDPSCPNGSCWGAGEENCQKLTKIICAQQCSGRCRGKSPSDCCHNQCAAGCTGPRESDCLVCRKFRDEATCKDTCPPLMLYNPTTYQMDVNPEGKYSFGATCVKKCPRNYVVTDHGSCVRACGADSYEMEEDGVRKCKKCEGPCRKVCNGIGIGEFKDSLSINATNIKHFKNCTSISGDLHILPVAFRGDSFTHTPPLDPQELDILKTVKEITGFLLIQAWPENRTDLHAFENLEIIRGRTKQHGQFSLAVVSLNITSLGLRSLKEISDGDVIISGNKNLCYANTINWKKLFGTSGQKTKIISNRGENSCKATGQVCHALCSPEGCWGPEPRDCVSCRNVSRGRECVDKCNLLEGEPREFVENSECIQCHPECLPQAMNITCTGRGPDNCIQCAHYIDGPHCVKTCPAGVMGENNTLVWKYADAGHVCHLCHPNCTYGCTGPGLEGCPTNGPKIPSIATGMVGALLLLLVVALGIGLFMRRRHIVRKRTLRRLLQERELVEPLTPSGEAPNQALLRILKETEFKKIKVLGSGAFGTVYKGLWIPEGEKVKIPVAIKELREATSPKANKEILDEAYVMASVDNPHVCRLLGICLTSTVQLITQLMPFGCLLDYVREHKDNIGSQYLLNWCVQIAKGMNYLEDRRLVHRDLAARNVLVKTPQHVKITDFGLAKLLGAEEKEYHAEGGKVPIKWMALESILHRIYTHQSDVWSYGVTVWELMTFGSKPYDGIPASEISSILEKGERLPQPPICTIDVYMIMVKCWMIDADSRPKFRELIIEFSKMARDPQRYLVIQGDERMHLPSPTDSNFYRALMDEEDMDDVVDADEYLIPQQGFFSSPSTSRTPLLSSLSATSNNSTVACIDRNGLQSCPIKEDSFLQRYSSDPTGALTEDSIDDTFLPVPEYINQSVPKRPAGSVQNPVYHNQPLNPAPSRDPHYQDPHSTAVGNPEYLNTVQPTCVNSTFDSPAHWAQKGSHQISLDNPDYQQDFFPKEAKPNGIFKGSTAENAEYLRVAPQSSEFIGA
T2 sequence (P04626 whole entry): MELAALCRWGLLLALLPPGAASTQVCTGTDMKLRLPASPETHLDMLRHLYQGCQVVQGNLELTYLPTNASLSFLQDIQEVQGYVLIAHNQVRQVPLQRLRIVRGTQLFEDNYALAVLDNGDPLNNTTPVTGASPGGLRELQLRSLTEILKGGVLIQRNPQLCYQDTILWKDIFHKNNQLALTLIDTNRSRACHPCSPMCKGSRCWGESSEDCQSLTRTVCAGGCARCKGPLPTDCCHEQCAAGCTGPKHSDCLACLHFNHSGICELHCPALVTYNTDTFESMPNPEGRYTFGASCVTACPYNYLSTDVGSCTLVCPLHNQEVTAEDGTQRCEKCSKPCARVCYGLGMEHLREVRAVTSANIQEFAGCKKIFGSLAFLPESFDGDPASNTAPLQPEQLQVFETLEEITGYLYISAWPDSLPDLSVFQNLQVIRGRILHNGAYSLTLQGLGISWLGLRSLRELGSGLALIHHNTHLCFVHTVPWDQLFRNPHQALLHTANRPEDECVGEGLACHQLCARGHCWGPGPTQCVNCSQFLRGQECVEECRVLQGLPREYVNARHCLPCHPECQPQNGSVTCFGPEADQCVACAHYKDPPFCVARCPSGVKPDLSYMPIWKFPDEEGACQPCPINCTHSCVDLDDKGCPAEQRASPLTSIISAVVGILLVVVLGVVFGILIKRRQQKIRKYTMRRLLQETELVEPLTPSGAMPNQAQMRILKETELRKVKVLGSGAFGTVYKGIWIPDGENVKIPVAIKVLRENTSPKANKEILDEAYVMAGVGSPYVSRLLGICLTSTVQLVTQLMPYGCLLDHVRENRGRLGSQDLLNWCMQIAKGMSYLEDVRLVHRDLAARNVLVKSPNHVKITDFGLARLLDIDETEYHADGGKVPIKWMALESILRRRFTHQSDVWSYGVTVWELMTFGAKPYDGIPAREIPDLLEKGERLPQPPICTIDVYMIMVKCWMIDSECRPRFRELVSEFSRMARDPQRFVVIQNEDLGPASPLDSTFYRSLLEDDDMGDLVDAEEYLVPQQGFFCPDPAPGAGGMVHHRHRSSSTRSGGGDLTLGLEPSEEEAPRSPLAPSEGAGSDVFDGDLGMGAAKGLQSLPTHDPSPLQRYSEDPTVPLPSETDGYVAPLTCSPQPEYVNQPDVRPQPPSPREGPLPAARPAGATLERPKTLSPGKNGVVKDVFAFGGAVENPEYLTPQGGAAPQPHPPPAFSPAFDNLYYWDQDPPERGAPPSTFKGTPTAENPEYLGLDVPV

Compound	IC50 [1] [nM]	IC50 [2] [nM]	IC50 [3] [nM]	IC50 [4] [nM]
CCOC(=O)c1[nH]c(C)c2cnnc(Nc3ccc(OCc4cccc(F)c4)c(Cl)c3)c12	> 10000	934	1210	–
Cc1c(C(=O)NCCN2CCOCC2)[nH]c2cnnc(Nc3ccc(OCc4ccccn4)c(Cl)c3)c12	–	> 5000	–	–
Cc1c(C(=O)NCCCN2CCN(C)CC2)[nH]c2cnnc(Nc3ccc(OCc4cccc(F)c4)c(Cl)c3)c12	> 10000	2240	980	–
O=C(NCCN1CCCC1)c1cc2cnnc(Nc3ccc(OCc4cccc(F)c4)c(Cl)c3)c2[nH]1	> 10000	620	15100	–
Cc1c(C(=O)NCCN2CCN(C)CC2)[nH]c2cnnc(Nc3ccc(OCc4cccc(F)c4)c(Cl)c3)c12	> 10000	843	257	–
Cc1c(C(=O)NCCN2CCOCC2)[nH]c2cnnc(Nc3ccc(OCc4cccc(F)c4)c(Cl)c3)c12	5000	> 5000	12700	4
CCN(CC)CCNC(=O)c1cc2cnnc(Nc3ccc(OCc4cccc(F)c4)c(Cl)c3)c2[nH]1	> 10000	3840	77200	–
CCN(CC)CCNC(=O)c1[nH]c2cnnc(Nc3ccc(OCc4cccc(F)c4)c(Cl)c3)c2c1C	1280	960	1160	7
